For 27 compounds, ED50 results are on record in patent US4556660A, “N-(Bicyclic heterocyclyl)-4-piperidinamines” (Janssen Pharmaceutica N.V., priority 1983, dated 1985).

Like-named read-outs stand apart in the source and are kept apart here.

Assay [1] concerns serotonin; compound 48/80-induced gastric lesions. Nature of the assay: Antagonistic activity on the effects of serotonin in the gastric lesion test (lesions induced by compound 48/80). It counts as in vivo, Male rats of a Wistar inbred strain. Here is the method: Antagonistic activity on the effects of serotonin in the gastric lesion test
Male rats of a Wistar inbred strain, weighing 220-250 g, were starved overnight, water being available ad libitum. The test compounds were administered orally as a solution or as a suspension in aqueous medium. A control rat and a "blank" rat received the test compound. One hour later 5-[4-(diphenylmethyl)-1-piperazinylmethyl]-1-methyl-1H-benzimidazole-2-methanol was administered subcutaneously to all rats at the dose of 2.5 mg/kg.
Four hours after the intravenous injection of compound 48/80, the rats were decapitated and the stomachs were removed. Subsequently the stomachs were inspected for distension and contents (blood, fluid, food) and thoroughly rinsed. The macroscopic lesions were scored from 0 to +++, 0 corresponding to complete absence of visible lesions and the highest score corresponding to reddish rough patches covering more than half the glandular area.

The subject of assay [2] is compound 48/80-induced lethality. Description: Protection of rats from compound 48/80-induced lethality. The note with it: Rattus norvegicus, 4 h, read-out: compound 48/80 lethality test rats-ED50. It counts as in vivo, Male rats of an inbred Wistar strain. The protocol: Protection of rats from compound 48/80-induced lethality
The protection from compound 48/80-induced lethal circulatory collapse appears to be a simple way of evaluating quantitatively the antihistaminic activity of test compounds. Male rats of an inbred Wistar strain, weighing 240-260 g were used in the experiment. After overnight starvation the rats were transferred to conditioned laboratories (temp.=21±1° C., relative humidity-65±5%).
The rats were treated subcutaneously or orally with a test compound or with the solvent (NaCl solution, 0.9%). […] Survival after 4 hours is therefore considered to be a safe criterion of a protective effect of drug administration.
The ED50 -values of the compounds of formula (I) and the intermediates of formula (XVIII) are listed in the first column of table 1 and table 2. Said ED50 -values are the values in mg/kg body weight at which the tested compounds protect 50% of the tested animals against compound 48/80-induced lethality.

Setting [3] is: Rattus norvegicus, po; read-out: gastric lesion test ED50.
[4] abbreviates: Rattus norvegicus, po, read-out: gastric lesion test ED50.

On to `Fc1ccc(Cn2c(NC3CCN(CCNc4ccncn4)CC3)nc3ccccc32)cc1` [Compound 94, 1-[(4-fluorophenyl)methyl]-N-[1-[2-(4-pyrimidinylamino)ethyl]-4-piperidinyl]-1H-benzimidazol-2-amine hemihydrate], for which the ED50 in assay [1] (setting [3]) worked out at 1.25 mg/kg; in assay [2], 0.08 mg/kg.
`Fc1ccc(Cn2c(NC3CCN(CCNc4ncccn4)CC3)nc3ccccc32)cc1` [Compound 1, 1-[(4-fluorophenyl)methyl]-N-[1-[2-[(2-pyrimidinyl)amino]ethyl]-4-piperidinyl]-1H-benzimidazol-2-amine]: the ED50 in assay [1] (setting [3]) worked out at 0.63 mg/kg; in assay [2], 0.16 mg/kg.
On the same counts, the results for `CCCc1cc(O)nc(NCCN2CCC(Nc3nc4ccccc4n3Cc3ccc(F)cc3)CC2)n1` [Compound 86, 2-[[2-[4-[[1-[(4-fluorophenyl)methyl]-1H-benzimidazol-2-yl]amino]-1-piperidinyl]ethyl]amino]-6-propyl-4-pyrimidinol] are 2.5 mg/kg and 0.31 mg/kg.
On the same counts, the results for `O=C(O)/C=C/C(=O)O.O=C(O)/C=C/C(=O)O.O=C(OCCN1CCC(Nc2nc3ccccc3n2Cc2ccc(F)cc2)CC1)c1ccc2ccccc2n1` [Compound 112, [2-[4-[[1-[(4-fluorophenyl)methyl]-1H-benzimidazol-2-yl]amino]-1-piperidinyl]ethyl]-2-quinolinecarboxylate (E)-2-butenedioate (1:2)] are 0.63 mg/kg and 0.04 mg/kg.
As to `NC(=O)c1cccnc1NCCN1CCC(Nc2nc3cccnc3n2Cc2ccc(F)cc2)CC1` [Compound 24, 2-[[2-[4-[[3-[(4-fluorophenyl)methyl]-3H-imidazo[4,5-b]pyridin-2-yl]amino]-1-piperidinyl]ethyl]amino]-3-pyridinecarboxamide], the ED50 in assay [1] (setting [4]) and in assay [2] was 0.04 mg/kg each time.
For `NC(=O)c1cccnc1NCCN1CCC(Nc2nc3ccccc3n2Cc2ccc(F)cc2)CC1` [Compound 36], the ED50 in assay [1] (setting [3]) is 0.16 mg/kg; in assay [2] it was 0.08 mg/kg.
In the case of `O=C(NCCN1CCC(Nc2nc3ccccc3n2Cc2ccc(F)cc2)CC1)c1ccc(Cl)nc1.O=C(O)/C=C/C(=O)O.O=C(O)/C=C/C(=O)O` [Compound 116, 6-chloro-N-[2-[4-[[1-[(4-fluorophenyl)methyl]-1H-benzimidazol-2-yl]amino]-1-piperidinyl]ethyl]-3-pyridinecarboxamide (E)-2-butenedioate (1:2)], the ED50 in assay [1] (setting [3]) is 2.5 mg/kg; in assay [2], 0.31 mg/kg.
On the same counts, the results for `c1cnc(NCCN2CCC(Nc3nc4ccccc4n3Cc3ccoc3)CC2)nc1` [Compound 20] are 0.63 mg/kg and 0.04 mg/kg.
On the same counts, the results for `CN(CCN1CCC(Nc2nc3ccccc3n2Cc2ccc(F)cc2)CC1)c1ncccn1` [Compound 10] are 0.63 mg/kg and 0.08 mg/kg.
On the same counts, the results for `Fc1ccc(Cn2c(NC3CCN(CCNc4ccc(Cl)nn4)CC3)nc3ccccc32)cc1` [Compound 37] are 1.25 mg/kg and 0.08 mg/kg.
As for `O.O=c1nc(NCCN2CCC(Nc3nc4ccccc4n3Cc3ccc(F)cc3)CC2)[nH]cc1Cc1ccc(Cl)cc1` [Compound 85, 5-[(4-chlorophenyl)methyl]-2-[[2-[4-[[1-[(4-fluorophenyl)methyl]-1H-benzimidazol-2-yl]amino]-1-piperidinyl]ethyl]amino]-4(1H)-pyrimidinone monohydrate], the ED50 in assay [1] (setting [3]) was 2.5 mg/kg; in assay [2], 1.25 mg/kg.
On the same counts, the results for `COc1ccc2nc(NC3CCN(CCNc4ncccn4)CC3)n(Cc3ccc(F)cc3)c2c1` are 2.5 mg/kg and 1.25 mg/kg.
On the same counts, the results for `c1ccc(Cn2c(NC3CCN(CCNc4ncccn4)CC3)nc3cccnc32)nc1` [Compound 27, 3-(2-pyridinylmethyl)-N-[1-[2-(2-pyrimidinylamino)ethyl]-4-piperidinyl]3H-imidazo[4,5-b]pyridin-2-amine (E)-2-butenedioate (2:3)] are 2.5 mg/kg and 0.04 mg/kg.
As to `CC(CN1CCC(Nc2nc3ccccc3n2Cc2ccc(F)cc2)CC1)Nc1ncccn1` (stereo not drawn) [Compound 7], the ED50 in assay [1] (setting [3]) and in assay [2] was 0.63 mg/kg throughout.
On to `O=c1nc(NCCN2CCC(Nc3nc4ccccc4n3Cc3ccc(F)cc3)CC2)[nH]c2ccccc12` [Compound 88, 2-[[2-[4-[[1-[(4-fluorophenyl)methyl]-1H-benzimidazol-2-yl]amino]1-piperidinyl]ethyl]amino]-4(1H)-quinazolinone], for which the ED50 in assay [1] (setting [3]) came to 2.5 mg/kg; in assay [2] it was 0.63 mg/kg.
For the compound `Oc1ccc(Cn2c(NC3CCN(CCNc4ncccn4)CC3)nc3ccccc32)cc1` [Compound 73, 4-[[2-[[1-[2-(2-pyrimidinylamino)ethyl]-4-piperidinyl]amino]-1H-benzimidazol-1-yl]methyl]phenol], the ED50 in assay [1] (setting [3]) and in assay [2] was 2.5 mg/kg each time.
For `c1cnc(NCCN2CCC(Nc3nc4ccccc4n3Cc3cccs3)CC2)nc1` [Compound 19], the ED50 in assay [1] (setting [3]) stood at 2.5 mg/kg; in assay [2], 0.02 mg/kg.
On the same counts, the results for `Oc1ccc2c(c1)nc(NC1CCN(CCNc3ncccn3)CC1)n2Cc1ccc(F)cc1` are 2.5 mg/kg and 0.16 mg/kg.
Turning to `Cl.Cl.Cl.Nc1cccnc1NCCN1CCC(Nc2nc3ccccc3n2Cc2ccc(F)cc2)CC1` [Compound 93, N^2-[2-[4-[[1-[(4-fluorophenyl)methyl] -1H-benzimidazol-2-yl]amino]-1-piperidinyl]ethyl]-2,3-pyridinediamine trihydrochloride], the figures for the ED50 in assay [1] (setting [3]) and in assay [2] were 0.31 mg/kg and 0.08 mg/kg, respectively.
Regarding `c1cnc(NCCN2CCC(Nc3nc4ccccc4n3Cc3ccco3)CC2)nc1` [Compound 43], the ED50 in assay [1] (setting [4]) was 0.04 mg/kg; in assay [2], 0.16 mg/kg.
On the same counts, the results for `CN(c1nc2ccccc2n1Cc1ccc(F)cc1)C1CCN(CCNc2ncccn2)CC1` [Compound 75] are 0.63 mg/kg and 0.08 mg/kg.
Take `O=[N+]([O-])c1cc[n+]([O-])cc1NCCN1CCC(Nc2nc3ccccc3n2Cc2ccc(F)cc2)CC1` [Compound 14]: the results for the ED50 in assay [1] (setting [3]) and in assay [2] were 1.25 mg/kg and 0.04 mg/kg, respectively.
For the compound `Fc1ccc(Cn2c(NC3CCN(CCOc4ncccn4)CC3)nc3ccccc32)cc1` [Compound 81, 1-[(4-fluorophenyl)methyl]-N-[1-[2-(2-pyrimidinyloxy)ethyl]-4-piperidinyl]-1H-benzimidazol-2-amine], the ED50 in assay [1] (setting [3]) came out at 0.63 mg/kg; in assay [2] it was 0.16 mg/kg.
Regarding `COc1ccc2c(c1)nc(NC1CCN(CCNc3ncccn3)CC1)n2Cc1ccc(F)cc1`, the figures for the ED50 in assay [1] (setting [3]) and in assay [2] were 2.5 mg/kg and 1.25 mg/kg, respectively.
`O=C(NCCN1CCC(Nc2nc3ccccc3n2Cc2ccc(F)cc2)CC1)c1cccnc1Cl` [Compound 115, 2-chloro-N-[2-[4-[[1-[(4-fluorophenyl)methyl]-1H-benzimidazol-2-yl]amino]-1-piperidinyl]ethyl]-3-pyridinecarboxamide (E)-2-butenedioate (1:2) hemihydrate]: in assay [2], the ED50 was found to be 0.16 mg/kg.
On the same count and under the same terms, for `Cc1cc(Cl)nc(NCCN2CCC(Nc3nc4ccccc4n3Cc3ccc(F)cc3)CC2)n1` [Compound 62, N-[1-[2-[(4-chloro-6-methyl-2-pyrimidinyl)amino]ethyl]-4-piperidinyl]-1-[(4-fluorophenyl)methyl]-1H-benzimidazol-2-amine] the value was 0.63 mg/kg.
On the same count and under the same terms, then `Cc1nc2ccccc2nc1NCCN1CCC(Nc2nc3ccccc3n2Cc2ccc(F)cc2)CC1` [Compound 41], with 1.25 mg/kg.
